Results: patent US20080161255A1, “Use of Parp Inhibitors for Prevention and Treatment of Diabetic and Insulin Resistance Complications” (priority 2003, published 2008)

Tests used:
prostacyclin synthetase = assay: Arterial prostacyclin synthetase activity in insulin resistant Fatty Zucker Rats; type: in vivo; conditions: Fatty Zucker Rats treated for one week; untreated had only 1% of control Zucker rat activity
Text: In order to examine whether this phenomenon was present in vivo, and thus had direct clinical relevance, we studied an accepted model of non-diabetic insulin resistance, the Fatty Zucker Rat. In these rats, we examined the activity of the endothelial cell surface enzyme prostacyclin synthetase, which produces a major anti-atherosclerotic product, prostacyclin. This enzyme is known to be directly inactivated by reactive oxygen species.

GAPDH [1] = assay: GAPDH activity in bovine aortic endothelial cells; type: cell-based; conditions: 30 mM glucose; adenoviral overexpression or 3 mM PJ34
Experimental: Cell culture conditions. Confluent bovine aortic endothelial cells (passage 4-10) were maintained in Eagle's MEM containing 0.4% FBS, essential and non-essential amino acid and antibiotics. […] Cells were infected with adenoviruses 48 hr prior to addition of 30 mM glucose. Oligonucleotide synthesis and treatment of cells. […] The S-antisense GAPDH had the following sequence: [NT]. Scrambled oligonucleotides ([NT]) were used as controls. Oligo solutions were prepared in 10 mM TRIS buffer, pH 7.4, containing 1 mM EDTA NaCl. […], and the solution was added to the cells for 2 hr. GAPDH activity. BAECs were grown to confluency, harvested by using trypsin-EDTA after washing twice with PBS, and resuspended in lysis buffer. […] Protein was measured by using the Bio-Rad Coomassie Plus Protein Assay System. GAPDH activity was determined as described previously (Garcia et al., 2001; Tau et al., 1994).

protein kinase C = assay: Protein kinase C activity (membrane fraction) in bovine aortic endothelial cells; type: cell-based; conditions: 30 mM glucose plus PJ34
Experimental: (§1) Cell culture conditions. Confluent bovine aortic endothelial cells (passage 4-10) were maintained in Eagle's MEM containing 0.4% FBS, essential and non-essential amino acid and antibiotics. Cells were incubated for 3 days prior to determination of PKC activity, 48 hr prior to determination of hexosamine pathway activity, for 5 days prior to determination of advanced glycation end product formation, and for 6 hr prior to determination of NFκB activation. Cells were infected with adenoviruses 48 hr prior to addition of 30 mM glucose.
Protein kinase C activity. The assay was performed according to the manufacturer's instructions using the Protein Kinase C Assay System (Invitrogen, Carlsbad, Calif.).

hexosamine pathway = assay: Hexosamine pathway activity (UDP-GlcNAc concentration by HPLC); type: cell-based, bovine; conditions: 30 mM glucose plus PJ34
Experimental: as §1
Hexosamine pathway activity. Hexosamine pathway activity was assessed by measuring UDP-GlcNAc concentration. Cells were homogenized in three volumes (600 μl) of cold 0.6 M perchloric acid and kept at 0° C. for 10 min. The precipitated proteins were removed by centrifugation for 5 min at 13,500×g, and UDP-GlcNAc in the supernatant was determined by HPLC as previously described (13).

[2] = system: intracellular AGE formation; assay: Intracellular advanced glycation endproduct formation (quantitative immunoblotting); type: cell-based, bovine; conditions: 30 mM glucose plus PJ34
Experimental: as §1
Advanced glycation endproducts. Equal amounts of cell extract protein were used for quantitative immunoblotting performed as described (14). Methylglyoxal-derived imidazole advanced glycation endproducts were detected using monoclonal antibody 1H7G5 (identified above as IG7) at a 1:10,000 dilution. Immunocomplexes were visualized using an ECF kit according to the manufacturer's instructions (Amersham International, Piscataway, N.J.) and quantified using a Molecular Dynamics FluorImager and its ImageQuant 4.0 analytical software.

NFκB = NFκB activation (fluorescence in situ DNA-protein binding assay); type: cell-based, bovine; conditions: 30 mM glucose plus PJ34
Experimental: as §1
NFκB activation. A fluorescence in situ DNA-protein binding assay was performed in cultured cells as described (Kurose et al., 1997), and fluorescence per cell was determined using IP Lab Spectrum (Scanalytics, Fairfax, Va.).

GAPDH [3] = assay: Poly(ADP-ribosyl)ation of GAPDH (immunoprecipitation and western blotting); type: cell-based, bovine; conditions: adenoviral overexpression or 3 mM PJ34
Experimental: Immunoprecipitation. BAECs were plated in 100 mm cell culture plates and grown to confluency. Cells (2×10^7) were scraped from the plates, and 500 μg of protein was immunoprecipitated with 4 μg of the indicated antibody and 20 μl of Protein A Sepharose 4B (Amersham Phamacia Biotech) in binding buffer (final concentration […]).
Western blotting. Immunoprecipitated proteins electrophoresed on 10% PAGE gels were transferred onto nitrocellulose membranes. The immunoblots were developed with 1:1000 dilutions of anti-poly(ADPribose) IgG, and the signal was detected with the ECL System according to the manufacturer's instructions (Amersham Pharmacia Biotech). The images were scanned into a Molecular Dynamics FluorImager and analyzed using the ImageQuant 5.5 program.

[4] = system: bovine aortic endothelial cells; assay: FFA-induced superoxide / reactive oxygen species generation in endothelial cells; type: cell-based; conditions: FFA-treated endothelial cells
Text: FIG. 8 is a graph of experimental data showing the effects of inhibitors of free fatty acid (FFA) oxidation (TDGA), UCP-1, and MnSOD on FFA-induced superoxide generation in bovine aortic endothelial cells.
Since mitochondrial β-oxidation of fatty acids yields the same electron donors as those obtained from glucose metabolism, that is, NADH and FADH2, we hypothesized that increased free fatty acid flux from adipose tissue to vascular endothelium would also increase mitochondrial production of superoxide.

[5] = molecular target: T1, poly(ADP-ribose) polymerase (Bos taurus, UniProt P18493); assay: Poly(ADP-ribose) polymerase activity in aortic endothelial cells; type: cell-based, bovine; conditions: aortic endothelial cells incubated with oleic acid at levels found in non-diabetic insulin resistance subjects
T1 construct: endogenous in cells; host or cells: bovine aortic endothelial cells
Experimental: Poly(ADP-ribose) polymerase activity. Cells were incubated for 5 min at 37° C. in assay buffer containing 125 nmol NAD^+ spiked with 0.25 μCi of ^3H-NAD^+ (Amersham) as described (12). Enzyme activity was determined by measuring cpm incorporated into protein.

T1 sequence (P18493 whole entry): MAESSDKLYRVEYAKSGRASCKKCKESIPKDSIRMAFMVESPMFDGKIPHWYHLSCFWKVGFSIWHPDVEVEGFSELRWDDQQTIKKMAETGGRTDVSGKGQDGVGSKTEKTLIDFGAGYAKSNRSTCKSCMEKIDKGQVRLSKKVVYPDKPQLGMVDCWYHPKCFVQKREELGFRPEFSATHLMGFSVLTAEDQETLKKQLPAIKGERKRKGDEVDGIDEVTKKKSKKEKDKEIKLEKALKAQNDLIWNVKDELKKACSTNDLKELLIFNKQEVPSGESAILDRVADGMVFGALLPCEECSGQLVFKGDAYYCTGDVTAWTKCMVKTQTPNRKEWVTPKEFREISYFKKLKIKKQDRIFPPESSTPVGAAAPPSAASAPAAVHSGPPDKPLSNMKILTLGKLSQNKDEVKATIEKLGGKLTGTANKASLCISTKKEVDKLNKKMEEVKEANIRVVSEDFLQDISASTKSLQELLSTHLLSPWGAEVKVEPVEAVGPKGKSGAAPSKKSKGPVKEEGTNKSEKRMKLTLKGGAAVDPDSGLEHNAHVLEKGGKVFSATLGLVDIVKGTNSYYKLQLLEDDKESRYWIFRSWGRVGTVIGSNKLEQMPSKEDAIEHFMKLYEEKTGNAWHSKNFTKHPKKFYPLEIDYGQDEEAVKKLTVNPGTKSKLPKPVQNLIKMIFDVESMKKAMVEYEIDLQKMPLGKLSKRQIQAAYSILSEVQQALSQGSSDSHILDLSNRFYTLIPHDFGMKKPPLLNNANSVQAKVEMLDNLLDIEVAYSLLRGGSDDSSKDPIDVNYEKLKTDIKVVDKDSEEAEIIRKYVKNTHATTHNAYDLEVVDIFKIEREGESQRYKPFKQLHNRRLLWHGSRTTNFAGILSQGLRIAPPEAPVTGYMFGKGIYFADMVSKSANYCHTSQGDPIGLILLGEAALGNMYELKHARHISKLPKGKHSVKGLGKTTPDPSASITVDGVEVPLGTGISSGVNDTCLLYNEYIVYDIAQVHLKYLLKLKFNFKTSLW

O=C(O)c1ccc(-c2c3nc(c(-c4ccc(C(=O)O)cc4)c4ccc([n-]4)c(-c4ccc(C(=O)O)cc4)c4nc(c(-c5ccc(C(=O)O)cc5)c5ccc2[n-]5)C=C4)C=C3)cc1.[Mn+3] [MnTBAP, Manganese (III) tetrakis(4-benzoic acid) porphyrin]
activity of prostacyclin synthetase in aortas (prostacyclin synthetase): restored to supranormal levels

CN(C)CC(=O)Nc1ccc2[nH]c(=O)c3ccccc3c2c1 [PJ34, N-(oxo-5,6-dihdrophenanthridin-2-yl)-N,N-dimethylacetamide]
hyperglycemia-induced inhibition of GAPDH activity (GAPDH [1]): prevention | activation of PKC by 30 mM glucose (protein kinase C): completely prevented | effect of 30 mM glucose on UDP-N-acetylglucosamine concentration (hexosamine pathway) (hexosamine pathway): completely prevented | effect of 30 mM glucose on intracellular AGE formation [2]: completely prevented | effect of 30 mM glucose on NFκB activation (NFκB): completely prevented | poly(ADP-ribosyl)ation of GAPDH induced by 30 mM glucose (GAPDH [3]): completely prevented

CCCCCCCCCCCCCCC1(C(=O)O)CO1 (stereo not shown) [TDGA]
ability of FFAs to induce reactive oxygen species in endothelial cells [4]: inhibited

O=C(O)c1cccnc1 [nicotinic acid]
activity of prostacyclin synthetase in aortas (prostacyclin synthetase): restored to normal levels

CCCCCCCC/C=C\CCCCCCCC(=O)O [oleic acid]
increase of PARP activation [5]: 1.5 fold
